Assay results taken from US5364942A, “Sulphonylbenzyl-substituted imidazopyridines” (Bayer Aktiengesellschaft, priority 1992, dated 1994).

Key:
[1] = tested on: angiotensin II-induced contraction of the isolated rabbit aorta; test: Inhibition of angiotensin II-induced vascular contraction on isolated aortic rings of the rabbit in vitro; assay type: cell-based; conditions: Oryctolagus cuniculus, agonist angiotensin II, effect at 3rd = submaximal agonist concentration, read-out: IC50 against contractions induced by: AII
Protocol: Rabbits of both sexes are stunned by a blow to the neck and exsanguinated, or in some cases anaesthetised with Nembutal (about 60-80 mg/kg i.v.) and sacrificed by opening the thorax. The thoracic aorta is removed, freed from attached connective tissue and divided into ring segments 1.5 mm wide, and the segments are introduced individually, under an initial load of about 3.5 g, in 10 ml organ baths containing carbogen-gassed Krebs-Henseleit nutrient solution thermostatically controlled at 37° C. and having the following composition: 119 mmol/l of NaCl; 2.5 mmol/l of CaCl2 ×2H2 O; 1.2 mmol/l of KH2 PO4; 10 mmol/l of glucose; 4.8 mmol/l of KCl; 1.4 mmol/l of MgSO4 ×7H2 O and 25 mmol/l of NaHCO3.
The contractions are recorded isometrically by Statham UC2 cells via bridged amplifiers (ifd Mulheim or DSM Aalen) and are digitised and evaluated by means of an A/D converter (System 570, Keithley Munich). The agonist dose/effect curves (DEC) are plotted hourly. With every DEC, 3 or 4 individual concentrations are applied to the baths at intervals of 4 minutes. The end of the DEC and subsequent wash-out cycles (16 times for in each case about 5 seconds/minute with the above nutrient solution) is followed by a 28-minute rest or incubation phase, during which the contractions as a rule reach the starting value again.
The level of the third DEC in the normal case is used as the reference parameter for evaluation of the test substance which is to be investigated in subsequent passes and is applied to the baths for the following DECs at the start of the incubation time at a dosage which increases each time. Each aortic ring is stimulated over the whole day with always the same agonist.
(§1) ______________________________________
Agonists and their standard concentrations (Application
volume per individual dose = 100 μl):
as §1
For calculation of the IC50 (concentration at which the substance under investigation causes 50% inhibition), the particular effect at the 3rd=submaximal agonist concentration is taken as the basis.

[2] = molecular target: T1, angiotensin II receptor (Bos taurus, UniProt P25104); test: Interaction with the angiotensin II receptor on membrane fractions of the adrenal cortex; assay type: binding, cattle; conditions: bovine adrenal cortex membranes; 3H-angiotensin II (3-5 nM); 60 minutes at room temperature
T1 construct: partly purified membrane fractions of bovine AC with radioactive angiotensin II; from tissue; host or cells: bovine adrenal cortex, partly purified membrane fractions
T1 sequence (P25104 1-359): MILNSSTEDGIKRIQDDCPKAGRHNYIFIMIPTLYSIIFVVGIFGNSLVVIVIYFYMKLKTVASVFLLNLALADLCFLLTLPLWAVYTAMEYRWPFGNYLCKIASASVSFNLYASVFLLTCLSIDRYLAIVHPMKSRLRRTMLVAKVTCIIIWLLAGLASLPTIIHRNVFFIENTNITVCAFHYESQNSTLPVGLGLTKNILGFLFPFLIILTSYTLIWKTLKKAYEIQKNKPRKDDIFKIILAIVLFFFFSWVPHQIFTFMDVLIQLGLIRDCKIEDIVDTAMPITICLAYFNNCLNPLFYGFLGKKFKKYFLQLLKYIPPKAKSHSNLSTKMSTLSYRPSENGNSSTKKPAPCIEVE
Protocol: Adrenal cortices from cattle (AC), which are freshly removed and carefully freed from medulla of the capsule, are comminuted to a coarse membrane homogenate in sucrose solution (0.32M) with the aid of an Ultra-Turrax (Janke & Kunkel, Staufen i.B.), and the homogenate is partly purified to membrane fractions in two centrifugation steps.
The investigations on receptor bonding are carried out on partly purified membrane fractions of bovine AC with radioactive angiotensin II in an assay volume of 0.25 ml, which specifically contains the partly purified membranes (50-80 μg), 3H-angiotensin II (3-5 nM), test buffer solution (50 mM Tris, pH 7.2), 5 mM MgCl2 and the substances to be investigated. After an incubation time of 60 minutes at room temperature, the non-bonded radioactivity of the samples is separated off by means of a moistened glass fibre filter (Whatman GF/C) and, after the protein has been washed with ice-cold buffer solution (50 mM Tris/HCl, pH 7.4, 5% PEG 6000), the bonded radioactivity is measured by spectrophotometry in a scintillation cocktail. The raw data were analysed for Ki and IC50 values by computer programs (Ki : IC50 values corrected for the radioactivity used; IC50 values: concentration at which the substance under investigation causes 50% inhibition of the specific bonding of the radio ligand).

[3] = tested on: smooth muscle cells; test: Inhibition of proliferation of smooth muscle cells (3H-thymidine incorporation); assay type: cell-based; conditions: 10^-6 M, smooth muscle cells from aortas of rats or pigs
Protocol: Smooth muscle cells obtained from the aortas of rats or pigs by the media explantate technique [R. Ross, J. Cell. Biol. 50, 172, 1971] are used to determine the antiproliferative action of the compounds.
The cells are sown in suitable culture dishes, as a rule 24-hole plates, and cultured for 2-3 days in medium 199 with 7.5% of FCS and 7.5% of NCS, 2 mM L-glutamine and 15 mM HEPES, pH 7.4, in 5% CO2 at 37° C. The cells are then synchronised for 2-3 days by withdrawal of the serum, and subsequently stimulated into growth with AII, serum or other factors. Test compounds are added at the same time. […]

[4] = tested on: angiotensin II-infused rats; test: Blood pressure measurements on angiotensin II-infused rats; assay type: in vivo, Male Wistar rats; conditions: angiotensin II-infused rats (0.3 μg/kg/minute), anaesthetised; dose 0.1 mg/kg p.o.
Protocol: Male Wistar rats (Moellegaard, Copenhagen, Denmark) with a body weight of 300-350 g are anaesthetised with thiopental (100 mg/kg i.p.). After tracheotomy, a catheter for blood pressure measurement is inserted into the femoral artery and a catheter for angiotensin II infusion and a catheter for administration of the substance are inserted into the femoral veins. After administration of the ganglion blocker pentolinium (5 mg/kg i.v.), the angiotensin II infusion (0.3 μg/kg/minute) is started. As soon as the blood pressure values have reached a stable plateau, the test substances are administered either intravenously, or orally as a suspension or solution in 0.5% of tylose. The changes in blood pressure under the influence of the substance are shown as the mean values ±SEM in the table.

| SMILES | IC50 [1] | Ki [2] | inhibition at 1 µM [3] | ΔP (change in blood pressure) [4] |
| --- | --- | --- | --- | --- |
| CCCCc1nc2cccnc2n1Cc1ccc(S(=O)(=O)N2CCCCC2C(=O)O)cc1Cl (racemic) [Example 2, rac-4-[{2-Butyl-imidazo[4,5-b]pyridin}-3-yl]methyl-3-chlorobenzenesulphonyl-N-(2-carboxy)piperidinide] | 326 nM | 1000 nM | 40% | – |
| COC(=O)[C@@H]1CCCN1S(=O)(=O)c1ccc(Cn2c(C3CC3)nc3c(C)ccnc32)c(Cl)c1 [Example 19] | 6 nM | – | – | – |
| CCc1nc2c(C)cc(C)nc2n1Cc1ccc(S(=O)(=O)N2CCC[C@H]2C(=O)OC)cc1Cl [Example 20, S-4-[[2-Ethyl-imidazo[4,5-b]5,7-dimethyl-pyridin]-3-yl]methyl-3-chloro-benzenesulphonyl-N-(2-methoxy-carbonyl)pyrrolidinide] | 6 nM | – | – | -48 mm Hg |
| Cc1cc(C)c2nc(C3CC3)n(Cc3ccc(S(=O)(=O)N4CCC[C@H]4C(=O)O)cc3Cl)c2n1 [Example 39] | 3 nM | – | – | -32 mm Hg |

The remaining compounds from weak to strong by IC50 [1], led by results:

| IC50 [1] | Ki [2] | SMILES | inhibition at 1 µM [3] | ΔP (change in blood pressure) [4] |
| --- | --- | --- | --- | --- |
| 40 nM | 550 nM | CCCCc1nc2cccnc2n1Cc1ccc(S(=O)(=O)N2CCC[C@H]2C(=O)O)cc1Cl [Example 5] | 70% | – |
| 4 nM | – | COC(=O)[C@@H]1CCCN1S(=O)(=O)c1ccc(Cn2c(C3CC3)nc3c(C)cc(C)nc32)c(Cl)c1 [Example 31] | – | -62 mm Hg |
| 3 nM | – | CCc1nc2c(C)cc(C)nc2n1Cc1ccc(S(=O)(=O)N2CCC[C@H]2C(=O)O)cc1Cl [Example 41] | – | – |
